Assay results from patent publication US11572590B2, “Methods for evaluating tumor cell spheroids using 3D microfluidic cell culture device” (Dana-Farber Cancer Institute, Inc., priority 2017, dated 2023).
Where two headings read alike, the source gives them in different places.

Key:
Experiment in all cases: SelectScreen Kinase Profiling, single point inhibition and IC50 for off-target kinases
Type in all cases: biochemical
off-target kinases [1] = target: off-target kinases (Homo sapiens, UniProt P28482); details: MAPK1 (ERK2), ZLYTE, ATP Km app
Sequence of off-target kinases (Homo sapiens, UniProt P28482) (P28482 whole entry): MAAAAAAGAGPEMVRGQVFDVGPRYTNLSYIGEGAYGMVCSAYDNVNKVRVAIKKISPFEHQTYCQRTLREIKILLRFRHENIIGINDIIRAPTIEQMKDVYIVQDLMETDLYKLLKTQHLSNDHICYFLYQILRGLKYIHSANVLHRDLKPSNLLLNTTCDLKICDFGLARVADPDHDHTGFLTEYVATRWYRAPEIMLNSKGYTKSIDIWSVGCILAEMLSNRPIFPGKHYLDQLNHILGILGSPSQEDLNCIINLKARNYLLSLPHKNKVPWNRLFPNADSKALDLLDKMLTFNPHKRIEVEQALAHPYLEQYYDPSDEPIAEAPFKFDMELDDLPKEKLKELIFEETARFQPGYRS

off-target kinases [2] = target: off-target kinases (Homo sapiens, UniProt Q13153); details: PAK1, ZLYTE, ATP Km app
Sequence of off-target kinases (Homo sapiens, UniProt Q13153) (Q13153 whole entry): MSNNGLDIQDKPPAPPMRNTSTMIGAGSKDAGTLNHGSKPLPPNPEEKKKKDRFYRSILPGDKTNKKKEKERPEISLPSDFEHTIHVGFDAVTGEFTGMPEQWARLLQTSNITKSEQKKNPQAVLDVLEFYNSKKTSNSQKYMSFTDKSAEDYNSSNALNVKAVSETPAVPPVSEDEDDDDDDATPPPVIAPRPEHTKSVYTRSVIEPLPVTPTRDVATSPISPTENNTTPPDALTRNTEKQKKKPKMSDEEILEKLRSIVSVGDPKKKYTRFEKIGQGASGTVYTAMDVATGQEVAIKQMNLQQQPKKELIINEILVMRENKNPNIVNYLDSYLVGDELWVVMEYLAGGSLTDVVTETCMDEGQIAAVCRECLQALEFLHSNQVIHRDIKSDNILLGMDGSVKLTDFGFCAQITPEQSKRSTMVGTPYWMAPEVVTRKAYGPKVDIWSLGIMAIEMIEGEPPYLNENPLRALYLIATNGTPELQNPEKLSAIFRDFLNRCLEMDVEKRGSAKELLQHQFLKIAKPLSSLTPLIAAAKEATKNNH

off-target kinases [3] = target: off-target kinases (Homo sapiens, UniProt Q13627); details: DYRK1A, ZLYTE, ATP Km app
off-target kinases [4] = target: off-target kinases (Homo sapiens, UniProt P32298); details: GRK4; Cmpd1 1000 μM; ATP Km app; ZLYTE
Sequence of off-target kinases (Homo sapiens, UniProt P32298) (P32298 whole entry): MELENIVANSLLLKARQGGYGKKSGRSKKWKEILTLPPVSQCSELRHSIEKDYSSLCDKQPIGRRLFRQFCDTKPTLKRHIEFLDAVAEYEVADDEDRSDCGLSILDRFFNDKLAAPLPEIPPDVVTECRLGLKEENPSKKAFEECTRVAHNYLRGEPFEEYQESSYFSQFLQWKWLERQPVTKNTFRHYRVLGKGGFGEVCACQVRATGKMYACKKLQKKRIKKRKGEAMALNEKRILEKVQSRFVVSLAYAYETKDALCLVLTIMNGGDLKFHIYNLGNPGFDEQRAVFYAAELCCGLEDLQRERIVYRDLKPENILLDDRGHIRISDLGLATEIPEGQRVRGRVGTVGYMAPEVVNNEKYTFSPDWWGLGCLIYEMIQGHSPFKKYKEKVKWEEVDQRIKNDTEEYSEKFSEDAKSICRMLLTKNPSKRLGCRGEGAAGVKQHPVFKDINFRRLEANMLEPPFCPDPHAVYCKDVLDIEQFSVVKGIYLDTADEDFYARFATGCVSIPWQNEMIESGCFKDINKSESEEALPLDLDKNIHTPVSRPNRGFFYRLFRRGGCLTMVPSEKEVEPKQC

off-target kinases [5] = target: off-target kinases (Homo sapiens, UniProt Q07912); details: TNK2 (ACK), LanthaScreen Binding
Sequence of off-target kinases (Homo sapiens, UniProt Q07912) (Q07912 whole entry): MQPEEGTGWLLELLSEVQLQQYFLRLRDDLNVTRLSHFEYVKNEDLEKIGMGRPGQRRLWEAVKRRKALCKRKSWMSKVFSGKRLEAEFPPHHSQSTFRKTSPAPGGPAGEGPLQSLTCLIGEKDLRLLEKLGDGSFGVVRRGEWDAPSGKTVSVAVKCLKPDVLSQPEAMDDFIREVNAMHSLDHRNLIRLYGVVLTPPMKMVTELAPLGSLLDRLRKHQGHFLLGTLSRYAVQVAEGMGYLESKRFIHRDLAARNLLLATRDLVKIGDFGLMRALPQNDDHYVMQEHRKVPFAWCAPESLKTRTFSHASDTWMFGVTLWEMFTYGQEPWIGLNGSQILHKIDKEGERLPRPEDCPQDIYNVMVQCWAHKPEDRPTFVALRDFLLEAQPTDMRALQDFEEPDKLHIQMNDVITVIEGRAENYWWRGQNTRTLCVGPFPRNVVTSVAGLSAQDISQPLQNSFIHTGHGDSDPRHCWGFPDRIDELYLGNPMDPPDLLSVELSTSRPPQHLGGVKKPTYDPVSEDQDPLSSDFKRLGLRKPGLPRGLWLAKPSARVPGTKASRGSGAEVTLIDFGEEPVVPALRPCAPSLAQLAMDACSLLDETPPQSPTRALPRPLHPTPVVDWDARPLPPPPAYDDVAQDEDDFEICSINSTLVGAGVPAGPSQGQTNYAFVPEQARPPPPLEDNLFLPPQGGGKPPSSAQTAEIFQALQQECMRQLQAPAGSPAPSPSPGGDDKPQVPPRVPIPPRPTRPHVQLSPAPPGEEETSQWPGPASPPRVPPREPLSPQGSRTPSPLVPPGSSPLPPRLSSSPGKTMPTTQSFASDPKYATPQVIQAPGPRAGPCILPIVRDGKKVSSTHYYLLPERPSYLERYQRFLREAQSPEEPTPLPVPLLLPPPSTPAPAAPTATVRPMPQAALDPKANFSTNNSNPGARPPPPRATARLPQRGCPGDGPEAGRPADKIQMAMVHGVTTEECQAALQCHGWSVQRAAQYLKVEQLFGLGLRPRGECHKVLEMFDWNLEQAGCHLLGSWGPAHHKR

off-target kinases [6] = target: T1, off-target kinases (Homo sapiens, UniProt P15735); details: PHKG2, ATP Km app, ZLYTE
T1 sequence (P15735 1-406): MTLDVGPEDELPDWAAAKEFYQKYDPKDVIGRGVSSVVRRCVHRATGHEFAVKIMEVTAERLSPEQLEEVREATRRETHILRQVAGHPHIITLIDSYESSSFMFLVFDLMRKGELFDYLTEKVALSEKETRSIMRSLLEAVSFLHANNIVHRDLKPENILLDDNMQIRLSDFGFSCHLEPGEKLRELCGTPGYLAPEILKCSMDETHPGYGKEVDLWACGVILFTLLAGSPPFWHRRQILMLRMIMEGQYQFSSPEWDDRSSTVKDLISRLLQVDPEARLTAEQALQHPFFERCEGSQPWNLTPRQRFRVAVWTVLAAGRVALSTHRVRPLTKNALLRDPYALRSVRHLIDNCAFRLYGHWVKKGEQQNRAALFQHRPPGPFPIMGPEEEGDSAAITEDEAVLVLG

off-target kinases [7] = target: T2, off-target kinases (Homo sapiens, UniProt Q13188); details: STK3 (MST2), ZLYTE, ATP Km app
T2 sequence (Q13188 1-491): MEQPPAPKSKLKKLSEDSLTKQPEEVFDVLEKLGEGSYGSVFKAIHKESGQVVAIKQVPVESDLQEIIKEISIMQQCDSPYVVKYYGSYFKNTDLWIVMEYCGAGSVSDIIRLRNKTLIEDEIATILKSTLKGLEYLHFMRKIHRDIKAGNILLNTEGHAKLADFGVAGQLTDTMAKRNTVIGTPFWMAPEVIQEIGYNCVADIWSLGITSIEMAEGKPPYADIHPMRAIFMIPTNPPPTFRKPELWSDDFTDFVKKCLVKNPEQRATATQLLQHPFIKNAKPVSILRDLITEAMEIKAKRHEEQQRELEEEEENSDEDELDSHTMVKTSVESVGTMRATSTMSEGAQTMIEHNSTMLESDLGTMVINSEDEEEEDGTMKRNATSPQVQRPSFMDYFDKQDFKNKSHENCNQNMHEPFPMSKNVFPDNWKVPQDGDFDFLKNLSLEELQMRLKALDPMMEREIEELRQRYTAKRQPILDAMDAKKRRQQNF

off-target kinases [8] = target: off-target kinases (Homo sapiens, UniProt P34947); details: GRK5, ZLYTE, ATP Km app
Sequence of off-target kinases (Homo sapiens, UniProt P34947) (P34947 whole entry): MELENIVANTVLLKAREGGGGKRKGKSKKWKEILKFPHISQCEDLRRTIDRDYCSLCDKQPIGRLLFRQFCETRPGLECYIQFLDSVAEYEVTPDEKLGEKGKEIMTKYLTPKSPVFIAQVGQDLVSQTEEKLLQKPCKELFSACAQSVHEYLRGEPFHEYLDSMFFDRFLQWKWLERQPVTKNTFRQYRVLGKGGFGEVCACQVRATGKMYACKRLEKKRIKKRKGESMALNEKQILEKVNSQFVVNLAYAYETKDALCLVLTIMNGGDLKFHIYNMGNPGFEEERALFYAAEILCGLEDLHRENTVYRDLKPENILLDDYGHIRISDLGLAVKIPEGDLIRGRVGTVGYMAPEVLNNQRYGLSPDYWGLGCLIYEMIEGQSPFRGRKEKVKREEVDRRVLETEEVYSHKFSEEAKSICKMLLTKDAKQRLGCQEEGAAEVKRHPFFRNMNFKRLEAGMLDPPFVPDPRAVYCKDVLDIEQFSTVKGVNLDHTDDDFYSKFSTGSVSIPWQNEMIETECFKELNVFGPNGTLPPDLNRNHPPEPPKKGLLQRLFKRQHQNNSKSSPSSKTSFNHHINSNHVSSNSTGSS

Molecule `N#Cc1cc(-c2ncnc(Nc3ccc(N4CCN(C5COC5)CC4)cc3)n2)ccc1OC1CCOCC1` [Compound 1, 5-(4-((4-(4-(oxetan-3-yl)piperazin-1-yl)phenyl)amino)-1,3,5-triazin-2-yl)-2-((tetrahydro-2H-pyran-4-yl)oxy)benzonitrile] has an inhibition (off-target kinases [1]; read-out: % Inhibition 1) of 6%, an inhibition (off-target kinases [1]; read-out: % Inhibition 2) of 6% and an inhibition (off-target kinases [1]; read-out: % Inhibition Avg) of 6%. For the same molecule, the inhibition (off-target kinases [2]; read-out: % Inhibition 1) was 8%, the inhibition (off-target kinases [2]; read-out: % Inhibition 2) was 8% and the inhibition (off-target kinases [2]; read-out: % Inhibition Avg) was 8%. It also gave an inhibition (off-target kinases [3]; read-out: % Inhibition 1) of 30%, an inhibition (off-target kinases [3]; read-out: % Inhibition 2) of 27% and an inhibition (off-target kinases [3]; read-out: % Inhibition Avg) of 28%. The “% Inhibition 1” value (off-target kinases [4]) was −4%, the “% Inhibition 2” value (off-target kinases [4]) was −5% and the “% Inhibition Avg” value (off-target kinases [4]) was −5%. It also gave an inhibition (off-target kinases [5]; read-out: % Inhibition 1) of 25%, an inhibition (off-target kinases [5]; read-out: % Inhibition 2) of 26% and an inhibition (off-target kinases [5]; read-out: % Inhibition Avg) of 25%. For the same molecule, the inhibition (off-target kinases [6]; read-out: % Inhibition 1) was 83%, the inhibition (off-target kinases [6]; read-out: % Inhibition 2) was 79% and the inhibition (off-target kinases [6]; read-out: % Inhibition Avg) was 81%. It also gave an inhibition (off-target kinases [7]; read-out: % Inhibition 1) of 5%, an inhibition (off-target kinases [7]; read-out: % Inhibition 2) of 6% and an inhibition (off-target kinases [7]; read-out: % Inhibition Avg) of 5%. For the same molecule, the inhibition (off-target kinases [8]; read-out: % Inhibition 1) was 5%, the inhibition (off-target kinases [8]; read-out: % Inhibition 2) was -10% and the inhibition (off-target kinases [8]; read-out: % Inhibition Avg) was -3%.
